One block for each compound: values may come before it.
Columns and labels:
WEE1 = molecular target: T1, WEE1 (Homo sapiens, UniProt P30291+Q96SW2); test: Western-blot assay, substrate protein degradation in hPBMCs: WEE1; type: cell-based; conditions: for WEE1 substrate protein remaining %: compounds at 50 nM and 500 nM, 24 hours; for substrate protein remaining % WEE1: 24 hours of compound treatment, 50 nM and 500 nM
T1 construct: effects of the compounds of the present disclosure on the expression of target proteins in cells; endogenous in cells; host or cells: human PBMCs (hPBMCs)
T1 sequence (P30291 whole entry): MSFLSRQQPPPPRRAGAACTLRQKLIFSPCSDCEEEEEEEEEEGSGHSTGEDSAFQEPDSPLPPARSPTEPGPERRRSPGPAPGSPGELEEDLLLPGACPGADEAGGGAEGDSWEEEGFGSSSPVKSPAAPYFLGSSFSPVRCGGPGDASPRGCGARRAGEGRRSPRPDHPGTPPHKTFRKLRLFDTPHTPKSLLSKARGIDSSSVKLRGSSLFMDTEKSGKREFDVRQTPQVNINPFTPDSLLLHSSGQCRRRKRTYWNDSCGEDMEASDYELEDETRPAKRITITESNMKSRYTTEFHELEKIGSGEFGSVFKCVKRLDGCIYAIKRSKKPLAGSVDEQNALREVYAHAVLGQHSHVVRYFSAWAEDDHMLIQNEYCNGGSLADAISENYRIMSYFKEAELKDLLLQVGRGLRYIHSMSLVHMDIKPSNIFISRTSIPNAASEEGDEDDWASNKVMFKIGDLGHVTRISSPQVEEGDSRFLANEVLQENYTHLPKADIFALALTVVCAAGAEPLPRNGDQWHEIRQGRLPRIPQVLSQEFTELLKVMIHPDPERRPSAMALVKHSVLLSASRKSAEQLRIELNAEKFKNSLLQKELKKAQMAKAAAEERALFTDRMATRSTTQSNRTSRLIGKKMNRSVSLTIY
T1 sequence (Q96SW2 whole entry): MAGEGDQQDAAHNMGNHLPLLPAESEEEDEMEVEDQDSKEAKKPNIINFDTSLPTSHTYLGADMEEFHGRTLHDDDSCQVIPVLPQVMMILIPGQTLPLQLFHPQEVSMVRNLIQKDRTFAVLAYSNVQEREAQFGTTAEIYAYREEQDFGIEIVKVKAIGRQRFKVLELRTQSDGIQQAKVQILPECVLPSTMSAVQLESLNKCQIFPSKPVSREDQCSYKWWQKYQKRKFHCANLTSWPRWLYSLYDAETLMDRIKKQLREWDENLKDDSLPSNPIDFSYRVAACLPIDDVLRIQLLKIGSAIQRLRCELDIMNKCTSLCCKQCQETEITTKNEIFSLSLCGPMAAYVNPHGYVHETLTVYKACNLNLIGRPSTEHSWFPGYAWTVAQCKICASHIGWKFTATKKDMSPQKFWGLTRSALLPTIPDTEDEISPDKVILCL
T1 sequence (Q16531 whole entry partner): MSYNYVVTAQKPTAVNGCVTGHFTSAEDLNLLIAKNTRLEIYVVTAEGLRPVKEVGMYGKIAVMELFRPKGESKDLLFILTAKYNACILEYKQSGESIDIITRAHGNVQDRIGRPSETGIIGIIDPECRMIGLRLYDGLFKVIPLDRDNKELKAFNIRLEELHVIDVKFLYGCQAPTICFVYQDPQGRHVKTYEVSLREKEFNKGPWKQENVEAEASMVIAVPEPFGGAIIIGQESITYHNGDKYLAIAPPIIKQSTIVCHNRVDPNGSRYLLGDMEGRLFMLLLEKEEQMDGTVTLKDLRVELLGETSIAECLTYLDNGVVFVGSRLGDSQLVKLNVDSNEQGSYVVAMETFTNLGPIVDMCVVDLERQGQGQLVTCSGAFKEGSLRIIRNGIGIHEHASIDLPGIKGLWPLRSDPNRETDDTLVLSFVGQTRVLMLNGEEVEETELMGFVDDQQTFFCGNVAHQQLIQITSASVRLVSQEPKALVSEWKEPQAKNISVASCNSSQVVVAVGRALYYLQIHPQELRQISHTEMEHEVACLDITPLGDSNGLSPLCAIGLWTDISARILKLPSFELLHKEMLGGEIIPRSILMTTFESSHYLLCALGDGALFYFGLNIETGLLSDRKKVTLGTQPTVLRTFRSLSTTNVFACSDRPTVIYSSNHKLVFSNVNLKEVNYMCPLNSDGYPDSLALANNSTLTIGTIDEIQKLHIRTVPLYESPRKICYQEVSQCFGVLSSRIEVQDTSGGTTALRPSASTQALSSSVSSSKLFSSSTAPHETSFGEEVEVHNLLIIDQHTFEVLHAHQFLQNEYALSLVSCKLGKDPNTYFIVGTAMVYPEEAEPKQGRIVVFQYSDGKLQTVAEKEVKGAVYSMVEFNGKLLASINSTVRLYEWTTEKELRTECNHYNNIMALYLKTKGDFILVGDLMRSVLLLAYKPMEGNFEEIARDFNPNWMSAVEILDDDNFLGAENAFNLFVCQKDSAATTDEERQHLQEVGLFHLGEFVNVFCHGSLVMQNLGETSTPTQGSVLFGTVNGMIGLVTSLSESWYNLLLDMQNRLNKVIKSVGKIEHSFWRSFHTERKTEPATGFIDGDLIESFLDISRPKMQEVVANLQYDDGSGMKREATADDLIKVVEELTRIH

IKZF1 = molecular target: T2, IKZF1 (Homo sapiens, UniProt Q13422+Q96SW2); test: Western-blot assay, substrate protein degradation in hPBMCs: IKZF1; type: cell-based; conditions: for IKZF1 substrate protein remaining %: compounds at 50 nM and 500 nM, 24 hours; for substrate protein remaining % IKZF1: 24 hours of compound treatment, 50 nM and 500 nM
T2 construct: effects of the compounds of the present disclosure on the expression of target proteins in cells; endogenous in cells; host or cells: human PBMCs (hPBMCs)
T2 sequence (Q13422 whole entry): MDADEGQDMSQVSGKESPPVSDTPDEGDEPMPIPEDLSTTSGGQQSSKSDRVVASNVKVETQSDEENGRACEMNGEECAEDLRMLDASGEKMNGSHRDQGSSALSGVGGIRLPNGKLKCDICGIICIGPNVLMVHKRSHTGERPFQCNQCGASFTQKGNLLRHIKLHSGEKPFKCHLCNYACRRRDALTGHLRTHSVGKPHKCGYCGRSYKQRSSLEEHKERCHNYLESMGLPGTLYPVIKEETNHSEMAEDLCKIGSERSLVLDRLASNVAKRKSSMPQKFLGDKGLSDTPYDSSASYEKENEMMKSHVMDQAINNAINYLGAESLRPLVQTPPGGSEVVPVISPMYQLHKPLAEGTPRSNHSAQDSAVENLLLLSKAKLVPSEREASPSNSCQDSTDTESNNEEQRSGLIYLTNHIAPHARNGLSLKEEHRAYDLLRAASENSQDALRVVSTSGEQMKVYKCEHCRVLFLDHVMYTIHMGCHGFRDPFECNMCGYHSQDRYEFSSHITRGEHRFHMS
T2 sequence (Q96SW2 whole entry): as the sequence (Q96SW2 whole entry) above
T2 sequence (Q16531 whole entry partner): as the sequence (Q16531 whole entry partner) above

IKZF3 = molecular target: T3, IKZF3 (Homo sapiens, UniProt Q96SW2+Q9UKT9); test: Western-blot assay, substrate protein degradation in hPBMCs: IKZF3; type: cell-based; conditions: for IKZF3 substrate protein remaining %: compounds at 50 nM and 500 nM, 24 hours; for substrate protein remaining % IKZF3: 24 hours of compound treatment, 50 nM and 500 nM
T3 construct: effects of the compounds of the present disclosure on the expression of target proteins in cells; endogenous in cells; host or cells: human PBMCs (hPBMCs)
T3 sequence (Q9UKT9 whole entry): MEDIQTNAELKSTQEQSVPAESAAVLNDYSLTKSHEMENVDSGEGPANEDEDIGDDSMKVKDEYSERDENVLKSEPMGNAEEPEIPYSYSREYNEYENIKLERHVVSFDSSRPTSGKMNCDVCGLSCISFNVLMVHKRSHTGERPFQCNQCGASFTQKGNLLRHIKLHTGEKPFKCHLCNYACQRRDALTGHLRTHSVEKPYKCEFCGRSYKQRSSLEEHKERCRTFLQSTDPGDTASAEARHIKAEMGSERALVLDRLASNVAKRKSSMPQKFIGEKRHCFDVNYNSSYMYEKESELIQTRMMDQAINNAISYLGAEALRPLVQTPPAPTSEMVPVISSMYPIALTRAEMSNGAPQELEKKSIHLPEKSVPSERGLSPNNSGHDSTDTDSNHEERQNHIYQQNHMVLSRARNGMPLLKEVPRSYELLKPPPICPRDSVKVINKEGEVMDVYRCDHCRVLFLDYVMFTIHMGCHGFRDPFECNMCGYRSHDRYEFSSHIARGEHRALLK
T3 sequence (Q96SW2 whole entry): as the sequence (Q96SW2 whole entry) above
T3 sequence (Q16531 whole entry partner): as the sequence (Q16531 whole entry partner) above

GSPT1 = molecular target: T4, GSPT1 (Homo sapiens, UniProt P15170+Q96SW2); test: Western-blot assay, substrate protein degradation in hPBMCs: GSPT1; type: cell-based; conditions: for GSPT1 substrate protein remaining %: compounds at 50 nM and 500 nM, 24 hours; for substrate protein remaining % GSPT1: 24 hours of compound treatment, 50 nM and 500 nM
T4 construct: effects of the compounds of the present disclosure on the expression of target proteins in cells; endogenous in cells; host or cells: human PBMCs (hPBMCs)
T4 sequence (P15170 whole entry): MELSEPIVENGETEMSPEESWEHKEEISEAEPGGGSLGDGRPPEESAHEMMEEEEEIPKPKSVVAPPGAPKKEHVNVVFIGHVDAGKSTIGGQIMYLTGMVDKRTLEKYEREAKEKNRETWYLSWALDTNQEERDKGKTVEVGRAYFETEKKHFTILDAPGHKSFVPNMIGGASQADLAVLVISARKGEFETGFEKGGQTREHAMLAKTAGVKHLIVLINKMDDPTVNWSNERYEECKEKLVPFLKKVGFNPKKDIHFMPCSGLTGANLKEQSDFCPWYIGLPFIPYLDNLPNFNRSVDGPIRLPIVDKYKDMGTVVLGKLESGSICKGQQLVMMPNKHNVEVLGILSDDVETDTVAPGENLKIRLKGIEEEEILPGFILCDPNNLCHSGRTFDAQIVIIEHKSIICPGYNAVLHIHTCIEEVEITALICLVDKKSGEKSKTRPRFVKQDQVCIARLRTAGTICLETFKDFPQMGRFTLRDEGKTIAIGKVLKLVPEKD
T4 sequence (Q96SW2 whole entry): as the sequence (Q96SW2 whole entry) above
T4 sequence (Q16531 whole entry partner): as the sequence (Q16531 whole entry partner) above

IKZF2 = molecular target: T5, IKZF2 (Homo sapiens, UniProt Q96SW2+Q9UKS7); test: Western-blot assay, substrate protein degradation in hPBMCs: IKZF2; type: cell-based; conditions: for IKZF2 substrate protein remaining %: compounds at 50 nM and 500 nM, 24 hours; for substrate protein remaining % IKZF2: 24 hours of compound treatment, 50 nM and 500 nM
T5 construct: effects of the compounds of the present disclosure on the expression of target proteins in cells; endogenous in cells; host or cells: human PBMCs (hPBMCs)
T5 sequence (Q9UKS7 whole entry): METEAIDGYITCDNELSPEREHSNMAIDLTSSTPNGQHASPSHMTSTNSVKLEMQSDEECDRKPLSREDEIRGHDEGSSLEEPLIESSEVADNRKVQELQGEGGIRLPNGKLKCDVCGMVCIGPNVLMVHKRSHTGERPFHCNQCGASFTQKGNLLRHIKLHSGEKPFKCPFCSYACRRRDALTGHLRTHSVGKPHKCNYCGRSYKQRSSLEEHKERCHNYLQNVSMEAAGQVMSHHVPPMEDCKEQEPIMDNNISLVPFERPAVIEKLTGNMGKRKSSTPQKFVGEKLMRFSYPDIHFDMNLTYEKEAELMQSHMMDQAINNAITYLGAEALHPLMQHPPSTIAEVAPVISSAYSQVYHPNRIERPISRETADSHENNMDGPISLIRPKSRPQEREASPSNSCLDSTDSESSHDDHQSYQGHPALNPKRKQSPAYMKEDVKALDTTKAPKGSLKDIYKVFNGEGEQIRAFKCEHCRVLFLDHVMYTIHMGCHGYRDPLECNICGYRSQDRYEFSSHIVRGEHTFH
T5 sequence (Q96SW2 whole entry): as the sequence (Q96SW2 whole entry) above
T5 sequence (Q16531 whole entry partner): as the sequence (Q16531 whole entry partner) above

CK1α = molecular target: T6, CK1α (Homo sapiens, UniProt P48729+Q96SW2); test: Western-blot assay, substrate protein degradation in hPBMCs: CK1α; type: cell-based; conditions: for CK1α substrate protein remaining %: compounds at 50 nM and 500 nM, 24 hours; for substrate protein remaining % CK1α: 24 hours of compound treatment, 50 nM and 500 nM
T6 construct: effects of the compounds of the present disclosure on the expression of target proteins in cells; endogenous in cells; host or cells: human PBMCs (hPBMCs)

MM.1S = test: Cell viability assay (CellTiter-Meiluncell Luminescent), tumor cell proliferation, MM.1S; conditions: Homo sapiens, MM1.S, 96 h; for IC50: read-out: inhibitory activity (IC50, nM) against tumor cells proliferation, MM.1S
H292 = test: Cell viability assay (CellTiter-Meiluncell Luminescent), tumor cell proliferation, H292; conditions: Homo sapiens, NCI-H292, 96 h
Procedure: The tumor cells used herein were cultured in a cell culture medium listed in table 2 at 37°C in an incubator with 5% CO2. Prior to experimentation, all cell lines used were correctly identified by STR profiling, and tested negative for mycoplasma contamination using a mycoplasma detection kit through routine screenings.
On the following day, the test compounds of the present disclosure were subjected to serial dilution. […] Subsequently, 0.5 µL of the test compound dilution was transferred into the 96-well plate containing the cells, with each well containing 100 µL of cell culture medium. […] Into the 96-well plate, the diluted test compounds and corresponding detection reagents were added, resulting in final test compound concentrations of 500 nM and 10 nM, respectively. The experimental procedure is described below using the diluted 2 µM test compound as an example.
After the cells were treated with the compounds of the present disclosure for a specified period, the cell viability assay reagent was added to the culture medium according to the kit's instructions to determine cell viability. […] All controls were treated using the same procedure as the compounds of the present disclosure. The growth inhibition curves for the compounds of the present disclosure were plotted using Prism GraphPad software, and the IC50 values were calculated therefrom.

[1] = read-out: Inhibition Rate at 10 nM (%)
[2] = read-out: Inhibition Rate at 500 nM (%)

Structure (SMILES): O=C1CCN(N2Cc3cc(CN4CC=C(c5ccnc6cc(F)ccc56)CC4)ccc3C2=O)C(=O)N1 [GT-05166, 1-(5-((4-(7-fluoroquinolin-4-yl)-3,6-dihydropyridin-1(2H)-yl)methyl)-1-oxoisoindolin-2-yl)dihydropyrimidine-2,4(1H,3H)-dione]
- WEE1 substrate protein remaining % (WEE1): A ("A" is defined as 0% ≤ substrate protein remaining % ≤ 80%)
- IKZF1 substrate protein remaining % (IKZF1): A ("A" is defined as 0% ≤ substrate protein remaining % ≤ 80%)
- IKZF3 substrate protein remaining % (IKZF3): A ("A" is defined as 0% ≤ substrate protein remaining % ≤ 80%)
- GSPT1 substrate protein remaining % (GSPT1): A ("A" is defined as 0% ≤ substrate protein remaining % ≤ 80%)
- IKZF2 substrate protein remaining % (IKZF2): A ("A" is defined as 0% ≤ substrate protein remaining % ≤ 80%)
- CK1α substrate protein remaining % (CK1α): B ("B" is defined as 80%< substrate protein remaining %≤ 100%)
- IC50 (MM.1S): 100 to 300 nM

Structure (SMILES): Cn1cc(C2=CCN(Cc3ccc4c(c3)CN(N3CCC(=O)NC3=O)C4=O)CC2)c2ccc(F)cc21 [GT-05167, 1-(5-((4-(6-fluoro-1-methyl-1H-indol-3-yl)-3,6-dihydropyridin-1(2H)-yl)methyl)-1-oxoisoindolin-2-yl)dihydropyrimidine-2,4(1H,3H)-dione]
- WEE1 substrate protein remaining % (WEE1): A ("A" is defined as 0% ≤ substrate protein remaining % ≤ 80%)
- IKZF1 substrate protein remaining % (IKZF1): A ("A" is defined as 0% ≤ substrate protein remaining % ≤ 80%)
- IKZF3 substrate protein remaining % (IKZF3): A ("A" is defined as 0% ≤ substrate protein remaining % ≤ 80%)
- GSPT1 substrate protein remaining % (GSPT1): A ("A" is defined as 0% ≤ substrate protein remaining % ≤ 80%)
- IKZF2 substrate protein remaining % (IKZF2): A ("A" is defined as 0% ≤ substrate protein remaining % ≤ 80%)
- CK1α substrate protein remaining % (CK1α): B ("B" is defined as 80%< substrate protein remaining %≤ 100%)
- IC50 (MM.1S): 10 to 50 nM

Structure (SMILES): O=C1CCN(N2Cc3cc(CN4CC=C(c5nccc(Cl)c5Cl)CC4)ccc3C2=O)C(=O)N1 [GT-06392, 1-(5-((3,4-dichloro-3',6'-dihydro-[2,4'-bipyridin]-1'(2'H)-yl)methyl)-1-oxoisoindolin-2-yl)dihydropyrimidine-2,4(1H,3H)-dione]
- WEE1 substrate protein remaining % (WEE1): A ("A" is defined as 0% ≤ substrate protein remaining % ≤ 80%)
- IKZF1 substrate protein remaining % (IKZF1): B ("B" is defined as 80%< substrate protein remaining %≤ 100%)
- IKZF3 substrate protein remaining % (IKZF3): A ("A" is defined as 0% ≤ substrate protein remaining % ≤ 80%)
- GSPT1 substrate protein remaining % (GSPT1): A ("A" is defined as 0% ≤ substrate protein remaining % ≤ 80%)
- IKZF2 substrate protein remaining % (IKZF2): A ("A" is defined as 0% ≤ substrate protein remaining % ≤ 80%)
- CK1α substrate protein remaining % (CK1α): A ("A" is defined as 0% ≤ substrate protein remaining % ≤ 80%)
- IC50 (MM.1S): 300 to 500 nM

Structure (SMILES): O=C1CCN(N2Cc3cc(CN4CC=C(c5cncc(Cl)c5Cl)CC4)ccc3C2=O)C(=O)N1 [GT-06393, 1-(5-((4,5-dichloro-3',6'-dihydro-[3,4'-bipyridin]-1'(2'H)-yl)methyl)-1-oxoisoindolin-2-yl)dihydropyrimidine-2,4(1H,3H)-dione]
- WEE1 substrate protein remaining % (WEE1): A ("A" is defined as 0% ≤ substrate protein remaining % ≤ 80%)
- IKZF1 substrate protein remaining % (IKZF1): B ("B" is defined as 80%< substrate protein remaining %≤ 100%)
- IKZF3 substrate protein remaining % (IKZF3): A ("A" is defined as 0% ≤ substrate protein remaining % ≤ 80%)
- GSPT1 substrate protein remaining % (GSPT1): A ("A" is defined as 0% ≤ substrate protein remaining % ≤ 80%)
- IKZF2 substrate protein remaining % (IKZF2): A ("A" is defined as 0% ≤ substrate protein remaining % ≤ 80%)
- CK1α substrate protein remaining % (CK1α): A ("A" is defined as 0% ≤ substrate protein remaining % ≤ 80%)
- IC50 (MM.1S): 500 to 1000 nM

Structure (SMILES): CC1(C)CCC(CN2CC3CC(C2)N3Cc2ccc3c(c2)CN(N2CCC(=O)NC2=O)C3=O)=C(c2ccc(Cl)cc2)C1 [GT-06456, 1-(5-((3-((4'-chloro-5,5-dimethyl-3,4,5,6-tetrahydro-[1,1'-biphenyl]-2-yl)methyl)-3,6-diazabicyclo[3.1.1]heptan-6-yl)methyl)-1-oxoisoindolin-2-yl)dihydropyrimidine-2,4(1H,3H)-dione]
- WEE1 substrate protein remaining % (WEE1): A ("A" is defined as 0% ≤ substrate protein remaining % ≤ 80%)
- IKZF1 substrate protein remaining % (IKZF1): A ("A" is defined as 0% ≤ substrate protein remaining % ≤ 80%)
- IKZF3 substrate protein remaining % (IKZF3): A ("A" is defined as 0% ≤ substrate protein remaining % ≤ 80%)
- GSPT1 substrate protein remaining % (GSPT1): A ("A" is defined as 0% ≤ substrate protein remaining % ≤ 80%)
- IKZF2 substrate protein remaining % (IKZF2): A ("A" is defined as 0% ≤ substrate protein remaining % ≤ 80%)
- CK1α substrate protein remaining % (CK1α): A ("A" is defined as 0% ≤ substrate protein remaining % ≤ 80%)
- IC50 (MM.1S): 100 to 300 nM

Structure (SMILES): O=C1CCN(N2C(=O)c3ccc(CN4CC=C(c5ncnc6sc7c(c56)CCCC7)CC4)cc3C2=O)C(=O)N1 [GT-08433, 2-(2,4-dioxotetrahydropyrimidin-1(2H)-yl)-5-((4-(5,6,7,8-tetrahydrobenzo[4,5]thieno[2,3-d]pyrimidin-4-yl)-3,6-dihydropyridin-1(2H)-yl)methyl)isoindoline-1,3-dione]
- inhibition at 0.01 µM (H292; [1]): 20 to 40%
- inhibition at 0.5 µM (H292; [2]): 15 to 20%
- substrate protein remaining % WEE1 (WEE1): B (80%< substrate protein remaining %≤ 100%)
- substrate protein remaining % IKZF1 (IKZF1): B (80%< substrate protein remaining %≤ 100%)
- substrate protein remaining % IKZF3 (IKZF3): A (0% ≤ substrate protein remaining % ≤ 80%)
- substrate protein remaining % GSPT1 (GSPT1): A (0% ≤ substrate protein remaining % ≤ 80%)
- substrate protein remaining % IKZF2 (IKZF2): B (80%< substrate protein remaining %≤ 100%)
- substrate protein remaining % CK1α (CK1α): A (0% ≤ substrate protein remaining % ≤ 80%)
- inhibition at 0.01 µM (MM.1S; [1]): 20 to 30%
- inhibition at 0.5 µM (MM.1S; [2]): 30 to 42%

More lines, main results first:

- IC50 (MM.1S): 100 to 300 nM
Structure (SMILES): O=C1CCN(N2Cc3cc(CN4CC(=C5CCOc6cc(F)ccc65)C4)ccc3C2=O)C(=O)N1 [GT-05168, 1-(5-((3-(7-fluorochroman-4-ylidene)azetidin-1-yl)methyl)-1-oxoisoindolin-2-yl)dihydropyrimidine-2,4(1H,3H)-dione]
- WEE1 substrate protein remaining % (WEE1): B ("B" is defined as 80%< substrate protein remaining %≤ 100%)
- IKZF1 substrate protein remaining % (IKZF1): B ("B" is defined as 80%< substrate protein remaining %≤ 100%)
- IKZF3 substrate protein remaining % (IKZF3): A ("A" is defined as 0% ≤ substrate protein remaining % ≤ 80%)
- GSPT1 substrate protein remaining % (GSPT1): A ("A" is defined as 0% ≤ substrate protein remaining % ≤ 80%)
- IKZF2 substrate protein remaining % (IKZF2): B ("B" is defined as 80%< substrate protein remaining %≤ 100%)
- CK1α substrate protein remaining % (CK1α): B ("B" is defined as 80%< substrate protein remaining %≤ 100%)

- IC50 (MM.1S): 100 to 300 nM
Structure (SMILES): O=C1CCN(N2Cc3cc(CN4CC(N5CCc6cc(F)ccc65)C4)ccc3C2=O)C(=O)N1 [GT-05169, 1-(5-((3-(5-fluoroindolin-1-yl)azetidin-1-yl)methyl)-1-oxoisoindolin-2-yl)dihydropyrimidine-2,4(1H,3H)-dione]
- WEE1 substrate protein remaining % (WEE1): B ("B" is defined as 80%< substrate protein remaining %≤ 100%)
- IKZF1 substrate protein remaining % (IKZF1): B ("B" is defined as 80%< substrate protein remaining %≤ 100%)
- IKZF3 substrate protein remaining % (IKZF3): A ("A" is defined as 0% ≤ substrate protein remaining % ≤ 80%)
- GSPT1 substrate protein remaining % (GSPT1): A ("A" is defined as 0% ≤ substrate protein remaining % ≤ 80%)
- IKZF2 substrate protein remaining % (IKZF2): A ("A" is defined as 0% ≤ substrate protein remaining % ≤ 80%)
- CK1α substrate protein remaining % (CK1α): B ("B" is defined as 80%< substrate protein remaining %≤ 100%)

- IC50 (MM.1S): 500 to 1000 nM
Structure (SMILES): O=C1CCN(N2Cc3cc(CN4CCC(c5ccsc5)CC4)ccc3C2=O)C(=O)N1 [GT-07371, 1-(1-oxo-5-((4-(thiophen-3-yl)piperidin-1-yl)methyl)isoindolin-2-yl)dihydropyrimidine-2,4(1H,3H)-dione]
- substrate protein remaining % WEE1 (WEE1): B (80%< substrate protein remaining %≤ 100%)
- substrate protein remaining % IKZF1 (IKZF1): B (80%< substrate protein remaining %≤ 100%)
- substrate protein remaining % IKZF3 (IKZF3): A (0% ≤ substrate protein remaining % ≤ 80%)
- substrate protein remaining % GSPT1 (GSPT1): A (0% ≤ substrate protein remaining % ≤ 80%)
- substrate protein remaining % IKZF2 (IKZF2): B (80%< substrate protein remaining %≤ 100%)
- substrate protein remaining % CK1α (CK1α): B (80%< substrate protein remaining %≤ 100%)

- IC50 (MM.1S): 500 to 1000 nM
Structure (SMILES): Cc1ccc(C2CCN(Cc3ccc4c(c3)CN(N3CCC(=O)NC3=O)C4=O)CC2)s1 [GT-07425, 1-(5-((4-(5-methylthiophen-2-yl)piperidin-1-yl)methyl)-1-oxoisoindolin-2-yl)dihydropyrimidine-2,4(1H,3H)-dione]
- substrate protein remaining % WEE1 (WEE1): B (80%< substrate protein remaining %≤ 100%)
- substrate protein remaining % IKZF1 (IKZF1): B (80%< substrate protein remaining %≤ 100%)
- substrate protein remaining % IKZF3 (IKZF3): B (80%< substrate protein remaining %≤ 100%)
- substrate protein remaining % GSPT1 (GSPT1): A (0% ≤ substrate protein remaining % ≤ 80%)
- substrate protein remaining % IKZF2 (IKZF2): B (80%< substrate protein remaining %≤ 100%)
- substrate protein remaining % CK1α (CK1α): B (80%< substrate protein remaining %≤ 100%)

Reference: EP4722207A1, “OXOISOINDOLINYL-SUBSTITUTED TETRAHYDROPYRIMIDINEDIONE DERIVATIVE AND USE THEREOF” (Gluetacs Therapeutics (Shanghai) Co., Ltd., priority 2023, dated 2024)
